From article PMC7905067, “Design and Immunological Evaluation of a Hybrid Peptide as a Potent TLR2 Agonist by Structure-Based Virtual Screening” (Frontiers in Cell and Developmental Biology, 2021)
Like-named read-outs stand apart in the source and are kept apart here.

What was measured:
[1] = tested on: CTX-immunosuppressed murine model; experiment: Body weight and immune organ indices in CTX-immunosuppressed mice; type: in vivo, BALB/c mice; settings: CTX 80 mg/kg i.p. 3 days, peptide 10 mg/kg i.p. days 4-10, n = 12; for bodyweight: CTX group vs control
Protocol: BALB/c mice (female, 6–8 weeks; Charles River, Beijing, China) used in this study were maintained in a specific-pathogen-free facility (55 ± 10% humidity and 22 ± 1°C) during the experiments. These experiments were conducted with approval from the Institutional Animal Care and Use Committee of China Agricultural University (certificate of the Beijing Laboratory Animal employee, ID: 18086).
(§1) After a 7-day adaptation period, the mice were randomly divided into five groups (n = 12 in each group): (1) control group: physiological saline was injected intraperitoneally once daily; (2) cyclophosphamide (CTX) group: CTX (80 mg/kg mouse weight; Sigma-Aldrich, St. Louis, MO, United States) was injected intraperitoneally once daily for the first 3 days. […] From days 4 to 10, peptide (10 mg/kg mouse weight) was injected intraperitoneally into mice once daily. Twenty-four hours after the last drug administration, all the mice were weighed and then euthanized, and their tissues and blood were collected for further study. The body weight index was calculated according to the formula:
Index(%)=finalbodyweight-initalbodyweight/initialbodyweight×100
The thymus and spleen indices were measured by the following formula:
Index(mg/g)=weightofthymusorspleen/bodyweight

[2] = tested on: serum TNF-α, IL-6, and IL-1β; experiment: Serum cytokines by ELISA in CTX-treated mice; type: in vivo, BALB/c mice; settings: CTX 80 mg/kg i.p. 3 days, peptide 10 mg/kg i.p. days 4-10, three biological replicates
Protocol: as §1, with “formula: […]” for “formula:”
(§2) Serum was collected from blood and then assayed by ELISA kits according to the protocol supplied by the manufacturer (eBioscience, San Diego, United States) to determine the secretion of IgG, IgA, IgM, TNF-α, IL-6, and IL-1β.

[3] = tested on: TLR2-NF-κB signaling pathway; experiment: Western blot of TLR2-NF-κB signaling pathway; type: in vivo, BALB/c mice; settings: proteins from serum, three independent experiments
Protocol: as §1, with “formula: […]” for “formula:”
Whole proteins were extracted from the serum using a whole-protein extraction kit (Nanjing KeyGEN Biotech, Nanjing, China). The protein concentrations were determined with the BCA Assay (KeyGEN Biotech, Nanjing, China) according to the manufacturer’s instructions. Equivalent amounts of protein were separated by SDS-PAGE and blotted onto polyvinylidene fluoride membranes (Bio-Rad). […]

[4] = tested on: T lymphocyte subpopulations (CD4 +, CD8 +), mouse peripheral blood; experiment: Peripheral blood T lymphocyte subpopulations by flow cytometry; type: in vivo, BALB/c mice; settings: CTX 80 mg/kg i.p. 3 days; peptide 10 mg/kg i.p. days 4-10; three biological replicates
Protocol: as §1, with “formula: […]” for “formula:”
Erythrocytes were aseptically obtained from the different groups of mouse peripheral blood and lysed with RBC lysis buffer. The remaining cells were washed with PBS and resuspended in PBS. The cells were combined with peridinin-chlorophyll-protein complex (PerCP)-conjugated anti-mouse CD3 +, allophycocyanin (APC)-conjugated anti-mouse CD4 +, and fluorescein isothiocyanate (FITC)-conjugated anti-mouse CD8 + (BD Pharmingen, United States) for 30 min at 4°C. The T lymphocyte subpopulations were analyzed by flow cytometry.

[5] = tested on: MHC class II, mouse PBMCs; experiment: DC maturation: MHC-II expression by flow cytometry; type: in vivo, BALB/c mice; settings: CTX 80 mg/kg i.p. 3 days; peptide 10 mg/kg i.p. days 4-10; three biological replicates
Protocol: as §1, with “formula: […]” for “formula:”
Mouse peripheral blood mononuclear cells (PBMCs) were obtained from the different groups of mice through Ficoll density gradient centrifugation. The cells were resuspended in PBS with 5% FBS and incubated with 10% (v/v) normal goat serum for 15 min at 4°C. The cells were combined with FITC-conjugated antibodies specific for MHC class II (MHC-II; BD Pharmingen, United States). The surface expression of MHC-II was determined by flow cytometry.

serum IgA, IgG, and IgM = experiment: Serum immunoglobulins by ELISA in CTX-treated mice; type: in vivo, BALB/c mice; settings: CTX 80 mg/kg i.p. 3 days, peptide 10 mg/kg i.p. days 4-10, three biological replicates
Protocol: as §1, with “formula: […]” for “formula:”
as §2

[6] = tested on: immunoregulatory mediators, proinflammatory cytokines, and chemokines; design: method as in 4 sources, ref Scott et al., 2002; Tjabringa et al., 2003; Bowdish et al., 2004 ||| ref Mookherjee et al., 2006; Molhoek et al., 2009 ||| ref Li et al., 2006; Tan et al., 2017 ||| ref Wei et al., 2018; settings: cited from earlier work
RAW264.7 cells = experiment: In vitro immunomodulatory activity: cytokine secretion by RAW264.7 cells (ELISA); type: cell-based, murine; settings: 10 μg/mL, 12 h, 37°C, ELISA; three independent experiments
Protocol: RAW264.7 cells were seeded at a density of 1.0 × 10^6 cell/mL and treated with (10 μg/mL) or without peptides in each well of a 6-well plate for 12 h at 37°C in a humidified incubator with 5% CO2. After treatment, TNF-α, IL-6 and IL-1β secretion in the cell supernatants was assessed using ELISA kits according to the manufacturer’s instructions.

TLR2 = settings: cited from earlier work
Text: Therefore, LL-37 could prevent or attenuate immunosuppression.

[7] = cited from earlier work
Text: TP5 plays a vitally important role in the process of immune enhancement.

[8] = ref Anders et al., 2018; cited from earlier work
thymic atrophy = tested on: thymic atrophy; design: method as in Goldstein et al., 1979; Singh et al., 1998; settings: ref Goldstein et al., 1979; Singh et al., 1998; cited from earlier work
TLR2, RAW264.7 cells = experiment: TLR2 blocking experiment (anti-mouse TLR2 C9A12, then LTPa); type: cell-based; settings: LTPa 10 μg/mL, 24 h; with or without TLR2 mAb (C9A12) 1 h before; ELISA
Protocol: For TLR2 blocking experiments, RAW264.7 cells were cultured in 24-well plates overnight at 37°C. The mouse IgG2a isotype control antibody or anti-mouse TLR2 (C9A12; InvivoGen, San Diego, CA, United States) was added to the cell cultures 1 h before being treated with LTPa for 24 h at 37°C. Then, the levels of TNF-α, IL-6, and IL-1β in the culture supernatant were analyzed.

In the case of `O=P1(N(CCCl)CCCl)NCCCO1` (centres unmarked) [CTX, cyclophosphamide, reference compound], the spleen index [1] is reported as “significantly decreased”, the thymus index [1] is reported as “significantly decreased” and the bodyweight [1] is reported as “significant decrease in the bodyweight”. The “serum IL-1β level” value [2] was “significantly decreased”, the “serum IL-6 level” value [2] was “significantly decreased” and the “serum TNF-α level” value [2] was “significantly decreased”. For the same molecule, the “expression levels of TLR2, MyD88, and TRAF6” value [3] was “significantly decreased the expression levels of TLR2, MyD88, and TRAF6”, the “phosphorylation of IKK-β, IκB-α, and NF-κB” value [3] was “significantly decreased” and the “proportions of CD4 + and CD8 + T lymphocytes” value [4] was “remarkably reduced the proportions of CD4 + and CD8 + T lymphocytes”. The “expression of MHC-II” value [5] was “significantly decreased”, the “serum IgA level” value (serum IgA, IgG, and IgM) was “significantly reduced” and the “serum IgG level” value (serum IgA, IgG, and IgM) was “significantly reduced”. For the same molecule, the “serum IgM level” value (serum IgA, IgG, and IgM) was “significantly reduced”.
In the case of “FKRIVQRI KDFLR [LL-37 (17–29), characteristic fragment of LL-37]”, the immunoregulatory activity ([6]; ref Li et al., 2006, Tan et al., 2017) is given as “robust immunoregulatory activity”.
For “FKRIVQRIKDFLRRKDVT [LTPb, hybrid peptide combining LL-37b and TP5]”, the IL-1β secretion (RAW264.7 cells) was “remarkable increases”, the IL-6 secretion (RAW264.7 cells) was “remarkable increases” and the TNF-α secretion (RAW264.7 cells) was “remarkable increases”.
For “IGKEFKRIV QRIKDFLRNL [LL-37 (13–31), characteristic fragment of LL-37]”, the immunoregulatory activity ([6]; ref Wei et al., 2018) is listed as “robust immunoregulatory activity”.
In the case of “IGKEFKRIVQRIKDFLRNLRKDVT [LTPc, hybrid peptide combining LL-37c and TP5]”, the IL-1β secretion (RAW264.7 cells) is reported as “remarkable increases”, the IL-6 secretion (RAW264.7 cells) is reported as “remarkable increases” and the TNF-α secretion (RAW264.7 cells) is reported as “remarkable increases”.
In the case of “IGKEFKRIVQRIKDFLRNLVPRTE [LL-37 (13–36), characteristic fragment of LL-37]”, the immunoregulatory activity ([6]; ref Mookherjee et al., 2006, Molhoek et al., 2009) is given as “robust immunoregulatory activity”.
For “LLGDFFRKSKEKIGKEFKRIVQRIKDFLRNLVPRTES [LL-37]”, the “innate immune response by binding to TLR2” value (TLR2; ref Mansour et al., 2014, Zhang et al., 2016, Agier et al., 2018) is listed as “robust innate immune response by binding to TLR2”, the bodyweight [1] is listed as “improved bodyweight rapidly” and the half-life ([7]; ref not separately given (sentence cites Anders et al., 2018)) is listed as “long half-life”. The “production of immunoregulatory mediators, proinflammatory cytokines, and chemokines” value ([6]; ref Scott et al., 2002, Tjabringa et al., 2003, Bowdish et al., 2004) was “stimulates the production of various immunoregulatory mediators, proinflammatory cytokines, and chemokines” and the cytotoxicity [8] was “hampered by its cytotoxicity”.
In the case of “RKDVT FKRIVQRIKDFLR [TPLb, hybrid peptide combining TP5 and LL-37b]”, the IL-1β secretion (RAW264.7 cells) is reported as “no significant increases”, the IL-6 secretion (RAW264.7 cells) is reported as “no significant increases” and the TNF-α secretion (RAW264.7 cells) is reported as “no significant increases”.
In the case of RKDVT [TP5, Thymopentin], the TLR2 binding (TLR2; ref Li et al., 2013) is given as “exert its immunoregulatory activity by binding TLR2”, the bodyweight [1] is given as “improved bodyweight rapidly” and the “restoration of thymic atrophy” value (thymic atrophy) is given as “able to restore the thymic atrophy induced by immunosuppressants”. For the same molecule, the half-life [7] was “short half-life”.
With “RKDVTIGKEFKRIVQRIKDFLRNL [TPLc, hybrid peptide combining TP5 and LL-37c]” the IL-1β secretion (RAW264.7 cells) was “no significant increases”, the IL-6 secretion (RAW264.7 cells) was “no significant increases” and the TNF-α secretion (RAW264.7 cells) was “no significant increases”.
In the case of “RKDVTIGKEFKRIVQRIKDFLRNLVPRTE [TPLa, hybrid peptide combining TP5 and LL-37a]”, the IL-1β secretion (RAW264.7 cells) is reported as “no significant increases”, the IL-6 secretion (RAW264.7 cells) is reported as “no significant increases” and the TNF-α secretion (RAW264.7 cells) is reported as “no significant increases”.
With “TLR2 mAb: anti-mouse TLR2 (C9A12; InvivoGen) [reference compound]” the “TNF-α, IL-6, and IL-1β production” value (TLR2, RAW264.7 cells) was “significantly inhibited the TNF-α, IL-6, and IL-1β production induced by LTPa”.
